Results: paper PMC11844072, “Novel 5,6-dichlorobenzimidazole derivatives as dual BRAFWT and BRAFV600E inhibitors: design, synthesis, anti-cancer activity and molecular dynamics simulations” (BMC Chemistry, 2025)

Key:
Test in all cases: NCI 5-dose assay
Format in all cases: cell-based
UACC-257 = details: Homo sapiens; UACC-257, Melanoma
Description: (§1) The synthesized dichlorobenzimidazoles 10a–p were assayed for their influence on divers cancer cell lines according to the method presented in the Additional file A.
(§2) 5. Screening of cytotoxic activity against a panel of sixty human tumor cell lines
(§3) The selected compounds by NCI were evaluated for their anticancer activity in a two-stage process. First, these compounds were screened against the full NCI 60 cell lines panel at a single high dose of 10 µM. Then, the output from the single dose screen is reported as a mean graph. […]
(§4) at five different minimal concentrations.
(§5) Assay protocol. The human tumor cell lines of the cancer screening panel are grown in RPMI 1640 medium containing 5% fetal bovine serum and 2 mM L-glutamine. For a typical screening experiment, cells are inoculated into 96 well microtiter plates in 100 µL at plating densities ranging from 5000 to 40,000 cells/well depending on the doubling time of individual cell lines. After cell inoculation, the microtiter plates are incubated at 37 °C, 5% CO 2, 95% air and 100% relative humidity for 24 h prior to addition of the experimental drugs.
(§6) After 24 h, two plates of each cell line are fixed in situ with TCA, to represent a measurement of the cell population for each cell line at the time of drug addition (Tz). The experimental drugs are solubilized in dimethyl sulfoxide at 400-fold the desired final maximum test concentration and stored frozen prior to use. At the time of drug addition, an aliquot of frozen concentrate is thawed and diluted to twice the desired final maximum test concentration with complete medium containing 50 µg/mL gentamicin. Additional four, 10-fold or ½ log serial dilutions are made to provide a total of five drug concentrations plus control.
(§7) Aliquots of […] of these different drug dilutions are added to the appropriate microtiter wells already containing […] of medium, resulting in the required final drug concentrations.
(§8) Following drug addition, the plates are incubated for an additional 48 h at 37 °C, 5% CO 2, 95% air, and 100% relative humidity. For adherent cells, the assay is terminated by the addition of cold TCA.
(§9) Cells are fixed in situ by the gentle addition of 50 µL of cold 50% (w/v) TCA (final concentration, 10% TCA) and incubated for 60 min at 4 °C. The supernatant is discarded, and the plates are washed five times with tap water and air dried. Sulforhodamine B (SRB) solution ([…]) at 0.4% (w/v) in 1% acetic acid is added to each well, and plates are incubated for 10 min at room temperature. After staining, unbound dye is removed by washing five times with 1% acetic acid and the plates are air dried. Bound stain is subsequently solubilized with 10 mM trizma base, and the absorbance is read on an automated plate reader at a wavelength of 515 nm. For suspension cells, the methodology is […]
(§10) the same except that the assay is terminated by fixing settled cells at the bottom of the wells by gently adding 50 µl of 80% TCA (final concentration, 16% TCA). Using the seven absorbance measurements [time zero, (Tz), control growth, (C), and test growth in the presence of drug at the five concentration levels (Ti)], the percentage growth is calculated at each of the drug concentrations […]
(§11) Percentage growth inhibition is calculated as: [(Ti Tz)/(C–Tz)] x 100 for concentrations for which Ti>/=Tz and [(Ti-Tz)/Tz] x 100 for concentrations for which Ti < Tz.
(§12) Three dose response parameters are calculated for each experimental agent. Growth […]
(§13) concentration resulting in a 50% reduction in the net protein increase (as measured by SRB staining) in control cells during the drug incubation. The drug concentration resulting in total growth inhibition (TGI) is calculated from Ti = Tz. […]
(§14) reduction in the measured protein at the end of the drug treatment as compared to that at the beginning) indicating a net loss of cells following treatment is calculated from [(Ti–Tz)/Tz] x 100 =
(§15) _50. Values are calculated for each of these three parameters if the level of activity is reached; […]

EKVX = details: Homo sapiens, Non-small cell lung cancer
Description: as §1, §2, §3, §4, §5, §6, §7, §8, §9, §10, §11, §12, §13, §14, §15

NCI-H522 = details: Homo sapiens; NCI-H522, Non-small cell lung cancer
Description: as §1, §2, §3, §4, §5, §6, §7, §8, §9, §10, §11, §12, §13, §14, §15

UACC-62 = details: Homo sapiens; UACC-62, Melanoma
Description: as §1, §2, §3, §4, §5, §6, §7, §8, §9, §10, §11, §12, §13, §14, §15

HOP-92 = details: Homo sapiens; HOP-92, Non-small cell lung cancer
Description: as §1, §2, §3, §4, §5, §6, §7, §8, §9, §10, §11, §12, §13, §14, §15

SF-295 = details: Homo sapiens; SF-295, CNS cancer
Description: as §1, §2, §3, §4, §5, §6, §7, §8, §9, §10, §11, §12, §13, §14, §15

RPMI-8226 = details: Homo sapiens; RPMI-8226, Leukemia
Description: as §1, §2, §3, §4, §5, §6, §7, §8, §9, §10, §11, §12, §13, §14, §15

MOLT-4 = details: Homo sapiens; MOLT-4, Leukemia
Description: as §1, §2, §3, §4, §5, §6, §7, §8, §9, §10, §11, §12, §13, §14, §15

SF-539 = details: Homo sapiens; SF-539, CNS cancer
Description: as §1, §2, §3, §4, §5, §6, §7, §8, §9, §10, §11, §12, §13, §14, §15

SNB-19 = details: Homo sapiens; SNB-19, CNS cancer
Description: as §1, §2, §3, §4, §5, §6, §7, §8, §9, §10, §11, §12, §13, §14, §15

BT-549 = details: Homo sapiens; BT-549, Breast cancer
Description: as §1, §2, §3, §4, §5, §6, §7, §8, §9, §10, §11, §12, §13, §14, §15

UO-31 = details: Homo sapiens; UO-31, Renal cancer
Description: as §1, §2, §3, §4, §5, §6, §7, §8, §9, §10, §11, §12, §13, §14, §15

ACHN = details: Homo sapiens, Renal cancer
Description: as §1, §2, §3, §4, §5, §6, §7, §8, §9, §10, §11, §12, §13, §14, §15

NCI-H322M = details: Homo sapiens, Non-small cell lung cancer
Description: as §1, §2, §3, §4, §5, §6, §7, §8, §9, §10, §11, §12, §13, §14, §15

SR = details: Homo sapiens, Leukemia
Description: as §1, §2, §3, §4, §5, §6, §7, §8, §9, §10, §11, §12, §13, §14, §15

KM12 = details: Homo sapiens; KM12, Colon cancer
Description: as §1, §2, §3, §4, §5, §6, §7, §8, §9, §10, §11, §12, §13, §14, §15

HCT-116 = details: Homo sapiens; HCT-116, Colon cancer
Description: as §1, §2, §3, §4, §5, §6, §7, §8, §9, §10, §11, §12, §13, §14, §15

A549/ATCC = details: Homo sapiens, Non-small cell lung cancer
Description: as §1, §2, §3, §4, §5, §6, §7, §8, §9, §10, §11, §12, §13, §14, §15

HCT-15 = details: Homo sapiens; HCT-15, Colon cancer
Description: as §1, §2, §3, §4, §5, §6, §7, §8, §9, §10, §11, §12, §13, §14, §15

K-562 = details: Homo sapiens, K562; K-562, Leukemia
Description: as §1, §2, §3, §4, §5, §6, §7, §8, §9, §10, §11, §12, §13, §14, §15

IGROV1 = details: Homo sapiens, IGROV-1; IGROV1, Ovarian cancer
Description: as §1, §2, §3, §4, §5, §6, §7, §8, §9, §10, §11, §12, §13, §14, §15

HOP-62 = details: Homo sapiens; HOP-62, Non-small cell lung cancer
Description: as §1, §2, §3, §4, §5, §6, §7, §8, §9, §10, §11, §12, §13, §14, §15

T-47D = details: Homo sapiens, T47D, Breast cancer
Description: as §1, §2, §3, §4, §5, §6, §7, §8, §9, §10, §11, §12, §13, §14, §15

SMILES | GI50 (UACC-257) [µM] | GI50 (EKVX) [µM] | GI50 (NCI-H522) [µM] | GI50 (UACC-62) [µM] | GI50 (HOP-92) [µM] | GI50 (SF-295) [µM] | GI50 (RPMI-8226) [µM] | GI50 (MOLT-4) [µM] | GI50 (SF-539) [µM] | GI50 (SNB-19) [µM] | GI50 (BT-549) [µM] | GI50 (UO-31) [µM] | GI50 (ACHN) [µM] | GI50 (NCI-H322M) [µM] | GI50 (SR) [µM] | GI50 (KM12) [µM] | GI50 (HCT-116) [µM] | GI50 (A549/ATCC) [µM] | GI50 (HCT-15) [µM] | GI50 (K-562) [µM] | other results
COC(=O)COc1ccc(C=NNC(=O)Cn2c(-c3ccc(OC)cc3)nc3cc(Cl)c(Cl)cc32)cc1 [Compound 10h, Methyl-2-(4-((2-(2-(5,6-dichloro-2-(4-methoxyphenyl)-1H-benzo[d]imidazol-1-yl)acetyl)hydrazono)methyl)phenoxy)acetate] | 12.7 | 18.8 | 14.7 | 10.1 | 11.4 | > 82.5 | 71.2 | 5.36 | 10.7 | > 82.5 | 25.6 | 9.74 | 7.84 | 21.3 | 2.8 | > 82.5 | 68 | > 82.5 | 11.2 | 11.3 | GI50 (IGROV1): 4.06 µM; GI50 (HOP-62): 17.3 µM; GI50 (T-47D): 2.68 µM
COC(=O)COc1cc(C=NNC(=O)Cn2c(-c3ccc(OC)cc3)nc3cc(Cl)c(Cl)cc32)ccc1OC [Compound 10o, Methyl-2-(5-((2-(2-(5,6-dichloro-2-(4-methoxyphenyl)-1H-benzo[d]imidazol-1-yl)acetyl)hydrazono)methyl)-2-methoxyphenoxy)acetate] | 38.7 | 89.2 | > 100 | 14.5 | 23.6 | > 100 | > 100 | 14.2 | 5.28 | > 100 | > 100 | 1.82 | 14.2 | 60.4 | 3 | > 100 | > 100 | > 100 | > 100 | > 100 | GI50 (IGROV1): 14.7 µM; GI50 (HOP-62): > 100 µM; GI50 (T-47D): 12.7 µM
COC(=O)COc1ccc(C=NNC(=O)Cn2c(-c3ccc(OC)cc3)nc3cc(Cl)c(Cl)cc32)cc1OC [Compound 10p, Methyl-2-(4-((2-(2-(5,6-dichloro-2-(4-methoxyphenyl)-1H-benzo[d]imidazol-1-yl)acetyl)hydrazono)methyl)-2-methoxyphenoxy)acetate] | 14.7 | 18.9 | > 72.5 | 6.52 | 12.5 | > 72.5 | > 72.5 | > 72.5 | 7.52 | > 72.5 | > 72.5 | 8.11 | 5.42 | 22.2 | 2.15 | > 72.5 | > 72.5 | > 72.5 | > 72.5 | > 72.5 | GI50 (IGROV1): 3.6 µM; GI50 (HOP-62): > 72.5 µM; GI50 (T-47D): 4.47 µM
